{
  "source": "patent US20190218613A1",
  "about": "“METHODS OF DETECTING THE FORMATION OF CELLULAR CLUSTERS OF RNA” (The Regents of the University of California, priority 2017, published 2019)",
  "key": {"[1]": {"test_system": "47× CAG RNA", "assay": "In vitro RNA phase separation/gelation assay (fluorescence micrographs, index of dispersion)", "format": "biochemical", "conditions": "for 47× CAG RNA clustering in vitro: 100 mM ammonium acetate (NH4OAc); for 47× CAG RNA clustering / gel formation in vitro: doxorubicin added to pre-formed clusters (37° C., 1 hour) or pre-mixed before annealing", "experimental": "For phase separation/gelation assays, RNAs were diluted to concentrations of 0.5 ng/μL to 0.5 μg/μL in 10 mM Tris pH 7.0, 10 mM MgCl2, 25 mM NaCl buffer, unless indicated otherwise. Nuclease-free buffer stocks were purchased from Ambion. RNA was denatured at 95° C. for 3 minutes and cooled down at 1-4° C. per minute to 37° C. final temperature in a thermocycler and imaged immediately. Samples were visualized using a custom spinning disk confocal microscope (Nikon Ti-Eclipse equipped with a Yokogawa CSU-X spinning disk module) using a×100, 1.49 numerical aperture oil immersion objective and an air-cooled EM-CCD (electron multiplying charge-coupled device). The extent of phase separation/gelation was quantified by the index of dispersion (σ^2/μ) of fluorescence intensity per pixel (pixel size 83 nm×83 nm). Briefly, variance in the fluorescence intensity per image was determined, and normalized to the mean fluorescence intensity in the solution phase of the RNA. For dilute solution (<10% of imaging area occupied with clusters), this parameter reports the extent of inhomogeneity in the sample. At least 20 independent imaging areas (about 1,800 μm^2 each) were analyzed for each condition to achieve a representative measure across the sample. Each datum point in the bar graphs represents one imaging area. Data shown are representative of three or more independent replicates, across two or more independent RNA preparations.\nFor antisense DNA-mediated repression of RNA phase separation, 47×CAG RNA (200 ng/μL or 2.4 μM) was incubated with the ASO at 20 μM final concentration, followed by heat denaturation and annealing as described above. Doxorubicin was purchased from Cell Signaling Technology (catalogue number 5927). For in vitro experiments, doxorubicin was added to pre-formed RNA clusters, and samples were incubated at 37° C. for 1 hour. Alternatively, doxorubicin and RNA were pre-mixed at indicated concentrations before annealing. Similar results were obtained in both cases."}, "[2]": {"test_system": "29× GGGGCC RNA foci in U-2OS cells", "assay": "Live-cell reporter assay of GGGGCC RNA foci in U-2OS cells", "format": "cell-based", "experimental": "(§1) A monoclonal U-20S cell line stably expressing Tet-On 3G transactivator protein (Clontech) and a tandem-dimeric MS2 hairpin binding protein tagged with enhanced YFP (MS2CP-YFP) was generated via sequential lentiviral infection and selection. This stable cell line was transduced with repeat-containing plasmids under doxycyclinetetracycline-inducible promoter. […] Cell lines were tested for mycoplasma contamination using a standard PCR kit (LookOut Mycoplasma PCR Detection Kit, Sigma) and verified routinely by live-cell DNA staining.\nRNA expression was induced by adding 1,000 ng/mL doxycycline for 12-48 hours, or as indicated. Before imaging, the culture medium was replaced with DMEM with 25 mM HEPES pH 7.5 or FluoroBrite DMEM (Invitrogen) with serum and antibiotics as listed above. For long-term imaging (>2 hours), cells were placed in a live-cell imaging chamber supplemented with 5% CO2. Cells were imaged using a spinning disk confocal microscope (Nikon Ti-Eclipse equipped with a Yokogawa CSU-X spinning disk module) using a×100, 1.49 numerical aperture oil immersion objective and an air-cooled EM-CCD. For each experimental condition, at least 30 randomly chosen cells were imaged and analyzed. Each datum point in the bar graphs represents one cell. Data shown are representative of three or more independent replicates. […]\nA fluorescence-intensity and size-based threshold was used to identify RNA foci. […] The nuclei were manually segmented, and the mean YFP fluorescence intensity in the nucleus was manually determined. RNA foci were identified using the FIJI 3D Objects Counter plugin, with an intensity threshold as 1.6x the mean fluorescence intensity in the nucleus of the cell, and a size cut-off of more than 50 adjoining pixels (pixel size, 83 nm×83 nm). […] This method was used to determine the number, volume, surface area, and the fluorescence intensity of the foci."}, "[3]": {"test_system": "nuclear speckles (SC-35)", "format": "cell-based", "experimental": "ATP depletion was achieved by rinsing cells twice in DMEM without glucose (Gibco), followed by incubation for 10 minutes in the ATP depletion medium (DMEM without glucose with 1% (v/v) dialyzed FBS (Gibco), 10 mM sodium azide and 6 mM 2-deoxy-D-glucose). Doxorubicin (stock, 10 mM in dimethylsulfoxide (DMSO)) was diluted to the desired concentration in cell culture medium and added to cells pre-induced with doxycycline for 24 hours. Cells were incubated with doxorubicin or an equivalent dilution of DMSO only as control, for 2 hours, and imaged as described above. Ammonium acetate (stock, 5 N) was diluted to 200 mM in cell culture medium. This intermediate dilution (2×) was added to cells pre-induced with doxycycline for 24 hours to achieve a final concentration of 100 mM of ammonium acetate. Cells were incubated in this medium for 10 minutes at 37° C. Normal cell culture medium was replaced after treatment, and cells were imaged immediately or 1 hour after medium replacement. For treatment with ASO, cells pre-induced with doxycycline for 48 hours were transfected with 100 nM final concentration of ASO using either Lipofectamine RNAiMAX (Invitrogen) or TranslT-Oligo Transfection Reagent (Mirius Bio) according to the manufacturers' recommended protocols. […] Cells were imaged 12 hours after transfection.\nHybridization and wash buffers were purchased from Biosearch Technologies and used according to the manufacturer's protocol. For immunofluorescence detection of proteins, methanol-fixed cells were stained using antibodies against muscleblind-like-1 (MBNL1, Abcam, ab45899), hnRNP H (Abcam, ab10374), SC-35 (Abcam, ab11826), coilin (ab87913), fibrillarin (Abcam, ab5821), PML (Abcam, ab179466), and a corresponding Alexa Fluor 647-labelled secondary antibody (Invitrogen A-21236 or Invitrogen A-21244). Samples were co-stained with an anti-green fluorescent protein (GFP) booster antibody (GBA488, Bulldog Bio) to visualize RNA foci. After labelling, samples were mounted in Prolong Gold antifade medium (Thermo Scientific) and imaged using confocal microscopy as described above."}, "[4]": {"test_system": "47× CAG RNA foci in U-2OS cells", "assay": "Live-cell reporter assay of RNA foci (MS2CP-YFP) in U-2OS cells", "format": "cell-based", "experimental": "as §1\nRNA expression was induced by adding 1,000 ng/mL doxycycline for 12-48 hours, or as indicated. Before imaging, the culture medium was replaced with DMEM with 25 mM HEPES pH 7.5 or FluoroBrite DMEM (Invitrogen) with serum and antibiotics as listed above. For long-term imaging (>2 hours), cells were placed in a live-cell imaging chamber supplemented with 5% CO2. Cells were imaged using a spinning disk confocal microscope (Nikon Ti-Eclipse equipped with a Yokogawa CSU-X spinning disk module) using a×100, 1.49 numerical aperture oil immersion objective and an air-cooled EM-CCD. For each experimental condition, at least 30 randomly chosen cells were imaged and analyzed. Each datum point in the bar graphs represents one cell. Data shown are representative of three or more independent replicates.\nATP depletion was achieved by rinsing cells twice in DMEM without glucose (Gibco), followed by incubation for 10 minutes in the ATP depletion medium (DMEM without glucose with 1% (v/v) dialyzed FBS (Gibco), 10 mM sodium azide and 6 mM 2-deoxy-D-glucose). Doxorubicin (stock, 10 mM in dimethylsulfoxide (DMSO)) was diluted to the desired concentration in cell culture medium and added to cells pre-induced with doxycycline for 24 hours. Cells were incubated with doxorubicin or an equivalent dilution of DMSO only as control, for 2 hours, and imaged as described above. Ammonium acetate (stock, 5 N) was diluted to 200 mM in cell culture medium. This intermediate dilution (2×) was added to cells pre-induced with doxycycline for 24 hours to achieve a final concentration of 100 mM of ammonium acetate. Cells were incubated in this medium for 10 minutes at 37° C. Normal cell culture medium was replaced after treatment, and cells were imaged immediately or 1 hour after medium replacement. For treatment with ASO, cells pre-induced with doxycycline for 48 hours were transfected with 100 nM final concentration of ASO using either Lipofectamine RNAiMAX (Invitrogen) or TranslT-Oligo Transfection Reagent (Mirius Bio) according to the manufacturers' recommended protocols. Similar results were obtained with both transfection reagents. Cells were imaged 12 hours after transfection.\nA fluorescence-intensity and size-based threshold was used to identify RNA foci. Briefly, U-2OS cells expressing the RNA of interest together with MS2CP-YFP were imaged using a spinning disk confocal microscope, and 0.3 μm Z-stacks were acquired. […] The nuclei were manually segmented, and the mean YFP fluorescence intensity in the nucleus was manually determined. RNA foci were identified using the FIJI 3D Objects Counter plugin, with an intensity threshold as 1.6x the mean fluorescence intensity in the nucleus of the cell, and a size cut-off of more than 50 adjoining pixels (pixel size, 83 nm×83 nm). […] This method was used to determine the number, volume, surface area, and the fluorescence intensity of the foci."}, "[5]": {"test_system": "47× CAG RNA foci in U-2OS cells", "assay": "RNA FISH with probe against MS2 hairpin loops in U-2OS cells", "format": "cell-based", "experimental": "For RNA FISH in U-2OS cells, cells expressing the desired RNA (induced for 24 hours) were fixed with 2% paraformaldehyde for 10 minutes at room temperature and permeabilized by overnight incubation in 70% ethanol at 4° C. Alternatively, cells were fixed and permeabilized by incubation for 10 minutes in methanol with 10% (v/v) acetic acid. Similar results were obtained with both fixation protocols. Fixed and permeabilized cells were either used immediately, or stored in the permeabilization medium at −20° C. until needed. RNA was detected using Cy3-labelled DNA oligonucleotides designed against the MS2-hairpin sequence."}, "[6]": {"conditions": "2.5 μM doxorubicin for 2 hours, listed as Doxorubicin"}},
  "note": "“Also recorded” adds a separate entry of the source. Like-named read-outs stand apart in the source and are kept apart here.",
  "data": [
    {"smiles": "[Cl-].[Na+]", "note": "[NaCl]", "values": [
      {"measurement": "clustering of 47× CAG RNA in presence of NaCl", "setting": "[1]; NaCl", "result": "inhibited"}
    ]},
    {"smiles": "CC(=O)O.N", "note": "[ammonium acetate]", "values": [
      {"measurement": "29× GGGGCC RNA foci in cells", "setting": "[2]; NH4OAc, same cell before and 300 s after treatment", "result": "disrupted"},
      {"measurement": "29× GGGGCC RNA foci in cells", "setting": "[2]; NH4OAc, same cell before and 300 s after treatment, listed as NH4OAc", "result": "disrupting 29× GGGGCC RNA foci"},
      {"measurement": "nuclear speckles", "setting": "[3]", "result": "disrupted"},
      {"measurement": "47× CAG RNA clustering in vitro", "setting": "[1]", "result": "not observed"},
      {"measurement": "47× CAG RNA clustering in vitro", "setting": "[1]; listed as NH4OAc", "result": "prevents 47× CAG RNA clustering"},
      {"measurement": "47× CAG RNA foci in cells", "setting": "[4]", "result": "disappearance of 47× CAG RNA foci within minutes; also recorded: disrupted"},
      {"measurement": "47× CAG RNA foci by RNA FISH", "setting": "[5]; 100 mM NH4OAc", "result": "disrupted"}
    ]},
    {"smiles": "COc1cccc2c1C(=O)c1c(O)c3c(c(O)c1C2=O)C[C@@](O)(C(=O)CO)C[C@@H]3O[C@H]1C[C@H](N)[C@H](O)[C@H](C)O1", "note": "[doxorubicin]", "values": [
      {"measurement": "29× GGGGCC RNA foci in cells", "setting": "[2]; doxorubicin", "result": "disrupting 29× GGGGCC RNA foci; also recorded: disrupted"},
      {"measurement": "nuclear speckles", "setting": "[3]; 2.5 μM doxorubicin for 2 hours", "result": "not disrupted"},
      {"measurement": "nuclear speckles", "setting": "[3]; [6]", "result": "without disrupting nuclear speckles"},
      {"measurement": "47× CAG RNA clustering / gel formation in vitro", "setting": "[1]", "result": "prevents 47× CAG RNA clustering"},
      {"measurement": "47× CAG RNA clustering / gel formation in vitro", "setting": "[1]; listed as Doxorubicin", "result": "blocked the formation of CAG RNA gels in vitro; also recorded: disrupted 47× CAG RNA clustering in vitro in a dose-dependent manner"},
      {"measurement": "concentration of doxorubicin needed to disrupt RNA clusters in the in vitro experiments", "setting": "[1]; in vitro", "result": "about 1 mM"},
      {"measurement": "47× CAG RNA foci in cells", "setting": "[4]; 2.5 μM doxorubicin for 2 hours", "result": "specifically abrogated the 47× CAG RNA foci"},
      {"measurement": "47× CAG RNA foci in cells", "setting": "[4]; [6]", "result": "potently dissolved the 47× CAG nuclear foci in cells"},
      {"measurement": "concentration of doxorubicin required to disrupt RNA foci in cells", "setting": "[4]; U-2OS cells, 47× CAG", "result": 2.5, "unit": "µM"},
      {"measurement": "47× CAG RNA foci by RNA FISH", "setting": "[5]; 2.5 μM doxorubicin", "result": "disrupted"}
    ]},
    {"smiles": "CO[C@H]([C@H](O)CC(=O)[C@@H](C)[C@@H](O)CC[C@@H](C)[C@@H]1O[C@]2(CC[C@@H](C)[C@H](CC[C@H](C)C(C)=O)O2)CC[C@@H]1C)[C@H](OC(=O)C[C@@H](O)C1=C(C)C(=O)OC1=O)C(C)C", "note": "[tautomycin]", "values": [
      {"measurement": "nuclear speckles", "setting": "[3]; 2 μM tautomycin for 4 hours", "result": "disruption of nuclear speckles; also recorded: disrupted"},
      {"measurement": "47× CAG RNA foci in cells", "setting": "[4]; 2 μM tautomycin for 4 hours", "result": "disrupts the 47× CAG RNA foci; also recorded: disrupted"}
    ]}
  ]
}
